Reference: patent US6699384B1, “Compact electrochemical sensor system and method for field testing for metals in saliva or other fluids” (priority 1999, dated 2004)
Several values for one entry are separate records, joined by “and”; a condition that tells them apart may be missing. Identical values can stand only once.

What was measured:
[1] = Pb in whole blood and saliva of rats after single acute oral doses of Pb-acetate; format: in vivo, Fisher 344 rats
Source text: Different sample pretreatment procedures for the effective release of the Pb from its binding sites in the biological fluids have been previously reviewed. (Wang, J.: Stripping analysis of trace metals in human body fluids. J. Electroanal. Chem., 139: 225-232 (1982)). It was reported that 0.5 M HCl can effectively release Pb^2+ ion from blood samples. (Nagler, R. M., Baum, B. J., and Fox, P. C.: Effect of X irradiation on the function of rat salivary glands at 3 and 40 days. Rad. Res., 136: 392-396 (1993)). In our work saliva sample was diluted 5 times with acidic solution to a final concentration of 0.5 M HCl. The sample solution was then loaded in sample reservoir and was delivered by the integrated micro-pump. The sample solution flowed across a mercury (Hg)-film working electrode and exited through an outflow groove positioned directly across the Pt auxiliary electrode. Square wave anodic stripping voltametry (SWASV) was utilized for quantitation of Pb in the specimens. For Pb detection, a constant potential of −1.10 V was applied to the glassy carbon Hg-film electrode. When sample solution flowed over the electrode surface, Pb^2+ was reduced and accumulated. After a 3-min accumulation period, the potential of the Hg-film electrode was scanned from −1.10 V to −0.10 V. To eliminate the sample matrix effect for blood and saliva samples, after the accumulation period, a clean solution (0.5 M HCl) was pumped from another reservoir and replaced the sample matrix, then the stripping analysis was performed. After each measurement the Pb was stripped from the electrode surface and the sensor was then available for analysis of the next specimen.
In order to validate the capability of the micro-analytical detection system to quantify Pb in biological specimens, rat studies were conducted using single acute oral doses of Pb-acetate. Adult male Fisher 344 rats were obtained from Charles River Laboratory and ranged from ˜0.230 to 0.260 kg of body weight when used. Groups of rats (3-5 animals/dose) were administered an aqueous solution of Pb-acetate by oral gavage at doses of 0, 20, 50, 100, 200 and 500 mg/kg of body weight. At ˜24 hr post-dosing the rats were anesthetized with an ip injection of ketamine (87 mg/kg):xylazine (13 mg/kg). In addition, each rat was given an ip injection of the cholinergic agonist pilocarpine (1 mg/kg) to induce salivation. Saliva was then collected from each rat, using a glass capillary tube, for approximately 30-min (˜1-2 mL saliva) at which time the rats were exsanguinated by cardiac puncture. Whole blood and saliva specimens were weighed and stored frozen (−80° C.) until the Pb analysis was conducted.
The concentration of Pb in the specimens was determined by inductively coupled plasma/mass spectrometry (ICP-MS). […]

[2] = Rate of salivation during pilocarpine treatment; format: in vivo, Fisher 344 rats; details: rat, pilocarpine 1 mg/kg ip
Experimental: In order to validate the capability of the micro-analytical detection system to quantify Pb in biological specimens, rat studies were conducted using single acute oral doses of Pb-acetate. Adult male Fisher 344 rats were obtained from Charles River Laboratory and ranged from ˜0.230 to 0.260 kg of body weight when used. Groups of rats (3-5 animals/dose) were administered an aqueous solution of Pb-acetate by oral gavage at doses of 0, 20, 50, 100, 200 and 500 mg/kg of body weight. At ˜24 hr post-dosing the rats were anesthetized with an ip injection of ketamine (87 mg/kg):xylazine (13 mg/kg). […]
A PBPK model describing the disposition of Pb in the rat was modified to accommodate a saliva compartment. In general, the PBPK model structure and parameter estimations were as previously described, and the reader is referred to O'Flagherty for a detailed description of the model. […] For simplification the model assumes a constant rate of saliva secretion based on the measured rate of salivation during pilocarpine treatment (0.048 L/day), recognizing that this represents an over estimation of normal saliva flow. […] The fraction of cardiac output to the saliva gland and 1st order absorption rate for intraperitoneal (ip) Pb administration were determined by fitting the data of Mobarak and P'an. […]

| Compound | blood Pb concentration ([1]; 500 mg/kg oral dose group, 24 hr post-dosing, saliva response non-linear relative to blood) | Pb in rat saliva, Results of ICP/MS ([1]; rat saliva ~24 hr after oral gavage of Pb-acetate, ICP-MS after acid digestion, individual samples 1-3) | Pb in rat saliva, Results of micro Analytical System ([1]; rat saliva ~24 hr after oral gavage of Pb-acetate, SWASV on Hg-film electrode, individual samples 1-3) | saliva Pb as percentage of the concentration in the blood ([1]; rat, oral Pb-acetate, ~24 hr post-dosing) | rate of saliva secretion [2] [L/day] |
| --- | --- | --- | --- | --- | --- |
| CC(=O)[O-].CC(=O)[O-].[Pb+2] [Pb, Pb-acetate] | exceeding 0.7 mg/L | 99 ppb and 150 ppb and 116 ppb | 80 ppb and 108 ppb and 111 ppb | 8.5%-9 | – |
| CC[C@@H]1C(=O)OC[C@@H]1Cc1cncn1C [pilocarpine] | – | – | – | – | 0.048 |
